Values of other authors as cited in PubChem BioAssay AID1259409 (Chemical Carcinogenesis Research Information System (CCRIS), 2018).

Test system: rodent chemically induced tumor inhibition, incidence and multiplicity
Experiment: CCRIS tumor inhibitor studies
Settings: Dose [Inhibitor]: 0, Species: MOUSE

## CC(O)CCCCCC(=O)c1ccccc1 (stereo not given)
Carcinogen: 4-(METHYLNITROSAMINO)-1-(3-PYRIDYL)-1-BUTANONE, 64091-91-4, 25 UMOL IN 0.1 ML CORN OIL ONCE 2 HR PRIOR TO CARCINOGEN DOSE (STUDY DURATION: 16 WK), Route [Inhibitor]: GAVAGE, Strain/Sex: STRAIN-A/FEMALE, Target Tissue: Type of Lesion: LUNG: ADENOMA, Dose [Carcinogen]: 10 UMOL IN 0.1 ML SALINE ONCE, Promoter: NONE USED
  tumour outcome (control, treated, inhibition, significance): 100%, 100%, 0%, not significant

## COc1ccc2cc1Oc1ccc(cc1)C[C@H]1c3c(cc4c(c3Oc3cc5c(cc3OC)CCN(C)[C@@H]5C2)OCO4)CCN1C
Carcinogen: 7,12-DIMETHYLBENZ[A]ANTHRACENE, 57-97-6, 0.005% IN DIET BEGINNING 1 D POST CARCINOGEN TREATMENT AND CONTINUING FOR DURATION OF STUDY (STUDY DURATION: 18 WK), Route [Inhibitor]: ORAL, Strain/Sex: ICR/FEMALE, Target Tissue: Type of Lesion: SKIN: PAPILLOMA, Dose [Carcinogen]: 50 UG IN 100 µL ACETONE ONCE, Promoter: 12-O-TETRADECANOYLPHORBOL-13-ACETATE, 16561-29-8
  tumour outcome (control, treated, inhibition, significance): 100%, 95%, 5%, not significant
Carcinogen: 7,12-DIMETHYLBENZ[A]ANTHRACENE, 57-97-6, 0.005% IN DIET BEGINNING 1 D POST CARCINOGEN TREATMENT AND CONTINUING FOR DURATION OF STUDY (STUDY DURATION: 25 WK), Route [Inhibitor]: ORAL, Strain/Sex: ICR/FEMALE, Target Tissue: Type of Lesion: SKIN: PAPILLOMA, Dose [Carcinogen]: 50 UG IN 100 µL ACETONE ONCE, Promoter: 12-O-TETRADECANOYLPHORBOL-13-ACETATE, 16561-29-8, MEZEREIN, 34807-41-5, Promoter: 12-O-TETRADECANOYLPHORBOL-13-ACETATE, 16561-29-8, MEZEREIN, 34807-41-5
  tumour outcome (control, treated, inhibition, significance): 75%, 45%, 40%, not calculated
Carcinogen: 7,12-DIMETHYLBENZ[A]ANTHRACENE, 57-97-6, 2 UMOL 2/WK 30 MIN PRIOR TO EACH PROMOTER DOSE BEGINNING 1 WK POST CARCINOGEN DOSE (STUDY DURATION: 18 WK), Route [Inhibitor]: DERMAL, Strain/Sex: ICR/FEMALE, Target Tissue: Type of Lesion: SKIN: PAPILLOMA, Dose [Carcinogen]: 50 UG ONCE, Promoter: 12-O-TETRADECANOYLPHORBOL-13-ACETATE, 16561-29-8
  tumour outcome (control, treated, inhibition, significance): 100%, 27%, 73%, not calculated
Carcinogen: 7,12-DIMETHYLBENZ[A]ANTHRACENE, 57-97-6, 20 UMOL/MOUSE 2/WK FOR 18 WK APPLIED 5 MIN PRIOR TO EACH PROMOTER DOSE (STUDY DURATION: 19 WK), Route [Inhibitor]: DERMAL, Strain/Sex: CD-1/FEMALE, Target Tissue: Type of Lesion: SKIN: PAPILLOMA, Dose [Carcinogen]: 100 UG IN 200 µL ACETONE ONCE, Promoter: 12-O-TETRADECANOYLPHORBOL-13-ACETATE, 16561-29-8
  tumour outcome (control, treated, inhibition, significance): 100%, 30%, 70%, p<0.01
